Data: patent publication US20240094211A1, “COMPOSITIONS AND METHODS TARGETING S100A10 FOR THE TREATMENT AND DIAGNOSIS OF LIVER CANCER” (The University of Hong Kong, priority 2022, published 2024)

What was measured:
HCC cells (PLC, 97L) [1] = assay: Chemotherapy-induced cytotoxicity / chemoresistance (XTT assay); type: cell-based, human; details: for cell viability of S100A10-OE cells versus controls on treatment: PLC and 97L
HCC cells (PLC, 97L) [2] = assay: Apoptotic assay (annexin-V staining, flow cytometry); type: cell-based, human; details: PLC and 97L, 48 h
Experimental: The apoptotic assay was determined by flow cytometry using annexin-V staining.

[3] = tested on: PLC-S100A10 xenograft tumors; assay: Chemoresistance / treatment in subcutaneous xenograft model; type: in vivo; details: nude mice
Experimental: All animal experiments were conducted and approved by the University of Hong Kong Committee on the Use of Live Animals in Teaching and Research (CULATR). The frequency of CSCs with tumor initiation capabilities was evaluated using limiting dilution assay. The BALB/c nude mouse xenograft model was used to evaluate tumorigenicity and chemoresistant ability in vivo. Nude mice were intrasplenically injected with HCC cells to assess the liver metastatic capacity in vivo. After surgery, mice recovered from anesthesia in a cage under a heater. Analgesia was provided to the nude mice during the first postoperative week. Tail vein injection of luciferase-labelled MHCC-97L cells in NOD SCID mice was used to assess lung metastatic ability. After mice were killed, the tumor tissues, livers, spleens, and lungs were excised and fixed in 4% paraformaldehyde overnight. Thereafter, fixed tissues were embedded in paraffin for further studies.
For chemoresistance in xenograft model, subcutaneous xenografts in nude mice were established with PLC/PRF/5 or MHCC97L cells. Treatment was started once the size of the xenograft reached ˜5 mm in diameter. The mice were randomly assigned into different groups, each consisting of at least 5 mice. Sorafenib at 10 mg/kg was administered daily through oral gavage. Mouse IgG antibody or anti-S100A10 antibody was administered at 10 μg once every 3 days by intraperitoneal injection.

S100A10 = S100A10 expression under chemotherapeutic treatment (qRT-PCR, western blot); type: cell-based, human; details: HCC cells treated with chemotherapeutic agents
Experimental: Total RNA was extracted using the TRIZOL Reagent (Life Technologies). cDNA was synthesized by reverse transcription (Roche). SYRB Green PCR Master Mix (Applied Biosystems) and Applied Biosystems Quant Studio 5 Real-time PCR System were used for qRT-PCR analysis. All qRT-PCR reactions were tested in triplicates.
(§1) Quantified protein lysates were resolved on SDS-PAGE, transferred onto a polyvinylidenedifluoride (PVDF) membrane (Bio-Rad), and then blocked with 5% non-fat milk in Tris-buffered saline-Tween 20 (TBST) for 1 h at room temperature. The blocked membrane was then incubated with primary antibody diluted in 5% bovine serum albumin in TBST at 4° C. overnight.

HIF-1α = HIF-1α expression under chemotherapeutic treatment (western blot); type: cell-based, human; details: HCC cells treated with chemotherapeutic agents
Experimental: as §1

HCC cells (PLC, 97L) [4] = assay: Transwell migration and matrigel invasion assays (pretreated HCC cells); type: cell-based, human
Experimental: Transwell migration and invasion assays were performed to evaluate cell motility (Corning, #353097 for migration, #354480 for invasion). Approximately 1×10^5 cells were seeded in the medium without FBS on transwell upper chambers, and the lower chamber was supplied with medium with 10% FBS, with the indicated conditional medium, or EVs. The cells that migrated and invaded to the lower membrane surface were stained using crystal violet and then counted under microscopy.
(§2) HCC cells were seeded in 6-well plate and subjected to 2 μg EVs treatment for 48 hours one day after seeding. Then the cells were used for functional studies or western blotting. For treating with neutralizing antibodies, EVs were incubated with PBS (1:10 volume/volume), IgG antibody (1:10 volume/volume) (Santa Cruz, sc-2025), or anti-S100A10 neutralizing antibody (1:10 volume/volume) (Santa Cruz, sc-81153) before they were applied in in vitro or in vivo assays. For S100A10 NA or ITGAV treatment before EVs isolation, 20 ug S100A10 NA or IgG were pre-incubate with 1,000 million cells and then seed in medium with 10% EVs free FBS. Then the EVs were collected after 48 hours.

PLC cells [5] = assay: Focus formation assay; type: cell-based, human
Experimental: Focus formation assay was used to assess anchorage-dependent growth. In brief, 1,000 cells were seeded in each well of six-well plate for approximately 2-3 weeks. Surviving colonies were stained and counted using crystal violet (Sigma-Aldrich).
as §2

PLC cells [6] = assay: Sphere formation assay; type: cell-based, human
Experimental: A total of 1,000 cells were cultured in 0.25% methyl cellulose (Sigma-Aldrich) supplemented DMEM/F12 medium (Life Technologies) with 20 ng/mL EGF (Life Technologies), 10 ng/mL basic FGF (Life Technologies), B27 (1:50, GIBCO), and 4 μg/mL insulin (BIOIND, Kibbutz Beit Haemek, Israel) in 24-well plates, which were coated with poly HEMA (Sigma-Aldrich). The cells were replenished with 30 μL supplementary medium every other day.
as §2

PLC-Vec/S100A10 cells = assay: XTT assay for cell proliferation with gefitinib; type: cell-based, human
[7] = tested on: MMP2, fibronectin and EGF on EVs; assay: Western blotting of MMP2, fibronectin, EGF and S100A10 in EVs and cells; type: cell-based, human; details: PLC-S100A10 cells treated 48 hours, compared with control GRADSP peptides (RAD)
Experimental: For EVs isolation from cell culture supernatants, HCC cells were cultured in medium with 10% EV-depleted FBS, which was prepared by 100,000× g centrifugation overnight (≥12 h) at 4° C. (Himac, CP100NX Ultracentrifuges). EVs were purified by differential centrifugation after the cell culture supernatant were collected. Briefly, cell culture supernatants were centrifuged at 2000×g for 15 min to remove cell debris and dead cells. Then the supernatant was centrifugated at 20000×g for 30 min at 4° C. to remove microvesicles. Then the supernatant was first passed through 0.22 μm filter followed by ultracentrifugation at 100,000×g for 2 h at 4° C. to collect EVs. The EVs were then washed with PBS and collected by ultracentrifugation at 100,000×g for another 2 h at 4° C. HCC patients' or healthy donors' plasma derived EVs were purified by differential centrifugation. The plasma was first centrifuged at 4000 g for 15 min to obtain cell-free plasma. Then, 500 μL of the obtained plasma was toped-up to 1 mL and then centrifuged at 20,000 g for 1 hour (Himac, CP100NX Ultracentrifuges). The collected supernatants were then centrifuged at 100,000 g for 2 h at 4° C. […]
Quantified protein lysates were resolved on SDS-PAGE, transferred onto a polyvinylidenedifluoride (PVDF) membrane (Bio-Rad), and then blocked with 5% non-fat milk in Tris-buffered saline-Tween 20 (TBST) for 1 h at room temperature. […]

Compound	cell viability of S100A10-OE cells versus controls on treatment (HCC cells (PLC, 97L) [1])	apoptotic indices of S100A10-OE cells versus controls on treatment (HCC cells (PLC, 97L) [2])	xenograft tumor growth in PLC-S100A10 group versus control group when treated [3]	expression of S100A10 (S100A10)	expression of HIF-1α (HIF-1α)	other results
O=c1[nH]cc(F)c(=O)[nH]1 [5-FU, 5-flurouracil]	significantly higher	lower	significantly larger	upregulated		
N.N.[Cl][Pt][Cl] [cisplatin]	significantly higher	lower	significantly larger	upregulated	upregulated	
COc1cc2ncnc(Nc3ccc(F)c(Cl)c3)c2cc1OCCCN1CCOCC1 [gefitinib]						invasion ability of S100A10-OE cells (HCC cells (PLC, 97L) [4]): significantly suppressed; migration ability of S100A10-OE cells (HCC cells (PLC, 97L) [4]): significantly suppressed; focus formation of S100A10-OE cells (PLC cells [5]): significantly suppressed; sphere formation of S100A10-OE cells (PLC cells [6]): significantly suppressed; chemoresistance of S100A10-OE cells (HCC cells (PLC, 97L) [1]; PLC S100A10-OE cells, sorafenib): significantly suppressed; sensitivity of S100A10-OE cells versus Vec cells (cell proliferation) (PLC-Vec/S100A10 cells): more sensitive
CNC(=O)c1cc(Oc2ccc(NC(=O)Nc3ccc(Cl)c(C(F)(F)F)c3)cc2)ccn1 [sorafenib]	significantly higher	lower	significantly larger	upregulated	upregulated	
GRGDSP [RGD peptide]						S100A10 on EVs [7]: no changes; levels of MMP2, fibronectin and EGF on EVs [7]: greatly reduced
